Structures are written as SMILES.

Experiment [1] concerns IL-6 cytokine output from THP-1s. Nature of the experiment: THP-1 AlphaLISA IL-6 cytokine assay. Format: cell-based, human. Particulars: Homo sapiens; PMA-differentiated THP-1 cells, LPS 24 hr then Nigericin 1 hour. The method, then: Measuring Inhibitory Effects on IL-1β and IL-6 Cytokine Output from THP-1s
The cytokine inhibition profiles of compounds of formula (IW-1) were determined in a differentiated THP-1 cell assay. All assays were performed in RPMI-1640 growth medium (Gibco), supplemented with 10% fetal bovine serum (FBS; Gibco), 1% penicillin-streptomycin and 1% sodium pyruvate unless specified otherwise. The IL-1β and IL-6 cytokine inhibition assays were each run in a background of differentiated THP-1 cells as described below. All reagents described were from Sigma-Aldrich unless specified otherwise. Compounds were prepared as 10 mM DMSO stocks.
THP-1 cells were expanded as a suspension up to 80% confluence in appropriate growth medium. Cells were harvested, suspended, and treated with an appropriate concentration of phorbol 12-myristate 13-acetate (PMA) over a 72 hr period (37° C./5% CO2).
Following 72 hrs of THP-1 cell incubation, cellular medium was removed and replaced with fresh growth media containing 1% of FBS. Working concentrations of compounds were prepared separately in 10% FBS treated growth medium and pre-incubated with the cells for 30 minutes (37° C./5% CO2). Following the 30 minute compound pre-incubation, THP-1s were treated with an appropriate concentration of LPS and the THP-1s were subsequently incubated for a 24 hr period (37° C./5% CO2). An appropriate final concentration of Nigericin was then dispensed into the THP-1 plates and incubated for 1 hour (37° C./5% CO2) before THP-1 supernatants were harvested and collected in separate polypropylene 96-well holding plates.
Reagents from each of the IL-1β and IL-6 commercial kits (Perkin Elmer) were prepared and run according to the manufacturer's instructions. Subsequently, fluorescence signal detection in a microplate reader was measured (EnVision® Multilabel Reader, Perkin Elmer).
Percentage inhibition was calculated per cytokine by normalising the sample data to the high and low controls used within each plate (+/−LPS respectively). Percentage inhibition was then plotted against compound concentration and the 50% inhibitory concentration (IC50) was determined from the resultant concentration-response curve.
In general terms: Bead proximity is the source of the signal in Alpha formats.

The test system of experiment [2] is IL-1β cytokine output from THP-1s. The experiment can be described thus: THP-1 AlphaLISA IL-1β cytokine assay. Format: cell-based, human. Particulars: Homo sapiens, THP-1, PMA-differentiated THP-1 cells, LPS 24 hr then Nigericin 1 hour; read-out: IL-1β (IC50). The gist of the method: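 PMA-differentiated (72 h) THP-1 cells pretreated 30 min with compound, LPS-stimulated 24 h, then nigericin 1 h at 37 °C. Supernatant IL-1β and IL-6 by AlphaLISA; % inhibition normalised to ±LPS controls, IC50 from concentration-response curves.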

As to `C=C(CC(=O)OC(C)C)C(=O)OCCS(C)(=O)=O` [Example 22, 4-isopropyl 1-(2-(methylsulfonyl)ethyl) 2-methylenesuccinate], the values for the IC50 in experiment [1] and in experiment [2] were 7 µM and 15.4 µM, respectively.
Regarding `C=C(CC(=O)OCCCCCCCC)C(=O)O[C@H]1CCOC1` [Example 23, (S)-4-octyl 1-(tetrahydrofuran-3-yl) 2-methylenesuccinate], the IC50 (usually the midpoint of a concentration-inhibition curve) in experiment [1] is 4.5 µM; in experiment [2] it was 8.2 µM.
The like results for `C=C(CC(=O)OCCCCCCCC)C(=O)OCCC(=O)NC` [Example 110, 1-(3-(methylamino)-3-oxopropyl) 4-octyl 2-methylenesuccinate] were, in that order, 4.4 µM and 8.5 µM.
Take `C=C(CC(=O)OCCCCCCCC)C(=O)OC1CCN(S(C)(=O)=O)CC1` [Example 28, 1-(1-(methylsulfonyl)piperidin-4-yl) 4-octyl 2-methylenesuccinate]: the IC50 in experiment [1] stood at 2.2 µM; in experiment [2] it was 5.2 µM.
`C=C(CC(=O)OC1CCCCC1)C(=O)OC(C)CS(C)(=O)=O` (stereo not shown) [Example 59, 4-cyclohexyl 1-(1-(methylsulfonyl)propan-2-yl) 2-methylenesuccinate]: the IC50 is 8.8 µM in experiment [1] and 13.3 µM in experiment [2].
The corresponding values for `C=C(CC(=O)OCCCCCCCC)C(=O)O[C@@H]1CCOC1` [Example 24, (R)-4-octyl 1-(tetrahydrofuran-3-yl) 2-methylenesuccinate] are 4.2 µM and 15 µM.
The like results for `C=C(CC(=O)OCCCOCC)C(=O)OCC(=O)O` [Example 114, 2-((4-(3-ethoxypropoxy)-2-methylene-4-oxobutanoyl)oxy)acetic acid] were, in that order, 56.2 µM and 100 µM.
On to `C=C(CC(=O)OCCCCCCCC)C(=O)OC1(C)COC1` [Example 68, 1-(3-methyloxetan-3-yl) 4-octyl 2-methylenesuccinate], for which the results for the IC50 in experiment [1] and in experiment [2] were 9.1 µM and 24 µM, respectively.
The corresponding values for `C=C(CC(=O)OCCCCCCCC)C(=O)OCCC(=O)N1CCOCC1` [Example 108, 1-(3-morpholino-3-oxopropyl) 4-octyl 2-methylenesuccinate] are 3.1 µM and 11.1 µM.
For `C=C(CC(=O)OC1CCCCC1)C(=O)OC1CCOCC1` [Example 64, 4-cyclohexyl 1-(tetrahydro-2H-pyran-4-yl) 2-methylenesuccinate], the results for the IC50 in experiment [1] and in experiment [2] were 12.6 µM and 10.2 µM, respectively.
The corresponding values for `C=C(CC(=O)OCCS(=O)(=O)c1ccc(C)cc1)C(=O)OCC(=O)O` [Example 97, 2-((2-methylene-4-oxo-4-(2-tosylethoxy)butanoyl)oxy)acetic acid] are 30.3 µM and 29.3 µM.
The like results for `C=C(CC(=O)OC1CCCCC1)C(=O)OCCS(C)(=O)=O` [Example 61, 4-cyclohexyl 1-(2-(methylsulfonyl)ethyl) 2-methylenesuccinate] were, in that order, 5 µM and 6.1 µM.
The like results for `C=C(CC(=O)OC1CCCCCCC1)C(=O)OC1CCOCC1` [Example 70, 4-cyclooctyl 1-(tetrahydro-2H-pyran-4-yl) 2-methylenesuccinate] were, in that order, 9.4 µM and 6.1 µM.
As to `C=C(CC(=O)O[C@H](C)CCCCCC)C(=O)OC1CS(=O)(=O)C1` [Example 57, (R)-1-(1,1-dioxidothietan-3-yl) 4-(octan-2-yl) 2-methylenesuccinate], the results for the IC50 in experiment [1] and in experiment [2] were 2.6 µM and 4.4 µM, respectively.
The like results for `C=C(CC(=O)OCCCCCCCC)C(=O)OCCC(=O)N(CC)CC` [Example 109, 1-(3-(diethylamino)-3-oxopropyl) 4-octyl 2-methylenesuccinate] were, in that order, 6.8 µM and 10.6 µM.
The corresponding values for `C=C(CC(=O)OCCCCCCCC)C(=O)OC(C)CC#N` (stereo not shown) [Example 27, 1-(1-cyanopropan-2-yl) 4-octyl 2-methylenesuccinate] are 6.4 µM and 12.2 µM.
The corresponding values for `C=C(CC(=O)OCCCCCC)C(=O)OCCC(=O)NS(C)(=O)=O` [Example 120] are 7.7 µM and 26.9 µM.

Values taken from patent publication US12390437B2, “Itaconic acid derivatives and uses thereof intreating an inflammatory disease or a disease associated with an undesirable immune response” (Sitryx Therapeutics Limited, priority 2019, dated 2025).
